{
  "source": "ChEMBL document CHEMBL3638563",
  "about": "“Quinazoline compounds as kinase inhibitors” (2014)",
  "key": {"[1]": {"target": "Serine/threonine-protein kinase B-raf (Homo sapiens, UniProt P15056)", "sequence (P15056 whole entry)": "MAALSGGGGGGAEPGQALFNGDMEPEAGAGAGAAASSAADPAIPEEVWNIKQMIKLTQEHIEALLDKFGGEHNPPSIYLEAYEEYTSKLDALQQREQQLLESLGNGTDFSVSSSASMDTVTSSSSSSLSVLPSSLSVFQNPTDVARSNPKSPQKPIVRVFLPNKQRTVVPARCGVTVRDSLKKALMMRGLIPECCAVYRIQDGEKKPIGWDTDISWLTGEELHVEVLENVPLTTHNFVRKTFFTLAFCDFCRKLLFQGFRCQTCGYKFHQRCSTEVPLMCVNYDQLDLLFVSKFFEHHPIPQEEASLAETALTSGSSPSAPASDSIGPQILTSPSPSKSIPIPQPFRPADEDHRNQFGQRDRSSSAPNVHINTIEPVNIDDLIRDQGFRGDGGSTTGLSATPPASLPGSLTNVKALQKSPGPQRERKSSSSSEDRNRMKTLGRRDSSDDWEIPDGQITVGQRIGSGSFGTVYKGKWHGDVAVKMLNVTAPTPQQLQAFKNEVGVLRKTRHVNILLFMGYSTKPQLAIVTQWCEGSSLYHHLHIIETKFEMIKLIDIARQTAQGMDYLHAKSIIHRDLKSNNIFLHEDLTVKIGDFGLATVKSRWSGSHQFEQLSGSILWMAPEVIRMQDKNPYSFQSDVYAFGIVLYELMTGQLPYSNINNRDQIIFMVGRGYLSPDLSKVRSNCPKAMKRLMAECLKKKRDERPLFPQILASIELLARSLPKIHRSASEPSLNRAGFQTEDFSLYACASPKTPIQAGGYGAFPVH", "assay": "(§1) Kinase Assay: Inhibition of kinase activity by test compound disclosed herein was estimated by quantifying the amount of [33P] incorporation of substrate in the presence of test compound. Standard assay conditions were 2 ng of recombinant C-Raf or 5 ng of recombinant B-Raf or 5 ng of recombinant B-Raf (V600E) kinase (Upstate Biotechnology) with 500 ng MEK1(K97R) in assay buffer {8 μM ATP, 0.5 μCi [33P]ATP (specific activity 3000 Ci/mmol, PerkinElmer), 50 mM Tris/HCl (pH7.5), and 1 mM EGTA, 1 mM Na3VO4, 1% 2-mercaptoethanol, 0.1% Brij 35, and 0.2 mg/ml BSA} at a final volume of 25 μL. Reactions were incubated at 30° C. for 30 min and stopped by adding 3% phosphoric acid, harvested onto a 96-well GF/B UniFilter (PerkinElmer) using a unifilter harvester (PerkinElmer), and counted with a TopCount microplate scintillation counter (PerkinElmer). The IC50 values of inhibitors were determined after carrying out assays at 3-fold serially diluted concentrations of each compound in duplication."}, "[2]": {"target": "RAF proto-oncogene serine/threonine-protein kinase (Homo sapiens, UniProt P04049)", "sequence (P04049 whole entry)": "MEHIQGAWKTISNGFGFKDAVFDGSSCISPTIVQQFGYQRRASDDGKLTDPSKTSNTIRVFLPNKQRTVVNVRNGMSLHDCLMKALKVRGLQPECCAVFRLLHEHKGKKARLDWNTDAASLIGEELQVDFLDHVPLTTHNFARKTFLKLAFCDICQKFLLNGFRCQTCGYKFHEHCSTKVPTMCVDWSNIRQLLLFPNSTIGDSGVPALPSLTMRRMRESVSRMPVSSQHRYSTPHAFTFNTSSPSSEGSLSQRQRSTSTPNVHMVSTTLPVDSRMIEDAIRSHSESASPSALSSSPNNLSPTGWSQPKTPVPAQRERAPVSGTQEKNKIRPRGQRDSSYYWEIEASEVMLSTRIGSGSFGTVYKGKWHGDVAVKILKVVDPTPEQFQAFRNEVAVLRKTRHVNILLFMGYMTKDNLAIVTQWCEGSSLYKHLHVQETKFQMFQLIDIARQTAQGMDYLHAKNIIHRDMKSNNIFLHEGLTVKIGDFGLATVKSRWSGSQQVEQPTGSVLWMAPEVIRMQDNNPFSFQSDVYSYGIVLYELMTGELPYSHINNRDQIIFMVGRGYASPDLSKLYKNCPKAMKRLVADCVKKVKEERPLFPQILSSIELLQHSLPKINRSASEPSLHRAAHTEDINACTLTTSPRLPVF", "assay": "as §1"}},
  "note": "pIC50: −log10 of the molar value.",
  "data": [
    {"smiles": "Nc1ccc(F)c(-c2ccc3ncnc(Nc4cccc5[nH]ncc45)c3c2)c1", "values": [
      {"measurement": "pIC50", "setting": "[1]", "result": 6.60},
      {"measurement": "pIC50", "setting": "[2]", "result": 5.63}
    ]}
  ]
}
